Results: patent publication US9975874B2, “Factor XIa inhibitors” (Merck Sharp & Dohme Corp., priority 2014, dated 2018)
pIC50: −log10 of the molar value.

What was measured:
[1] = target: purified Human plasma kallikrein (Homo sapiens (Human), UniProt P03952); test: Kallikrein Assay; type: biochemical; conditions: Plasma kallikrein; substrate Acetyl-K-P-R-AFC, 0.5 nM enzyme, pH 7.4; read-out: PK IC50
Experimental: (§1) The effectiveness of a compound of the present invention as an inhibitor of Kallikrein can be determined using a relevant purified serine protease, and an appropriate synthetic substrate. The rate of hydrolysis of the chromogenic or fluorogenic substrate by the relevant serine protease was measured both in the absence and presence of compounds of the present invention. Assays were conducted at room temperature or at 37° C. […] A decrease in the rate of fluorescence change in the presence of inhibitor is indicative of enzyme inhibition. Such methods are known to one skilled in the art. The results of this assay are expressed as the inhibitory constant, Ki.
Kallikrein determinations were made in 50 mM HEPES buffer at pH 7.4 containing 150 mM NaCl, 5 mM CaCl2, and 0.1% PEG 8000 (polyethylene glycol; Fisher Scientific). Determinations were made using purified Human plasma kallikrein at a final concentration of 0.5 nM (Enzyme Research Laboratories) and the synthetic substrate, Acetyl-K-P-R-AFC (Sigma # C6608) at a concentration of […].
Times required to achieve equilibration between enzyme and inhibitor were determined in control experiments. The reactions were performed under linear progress curve conditions and fluorescence increase measured at 405 Ex/510 Em nm. […] IC50 was determined by inflection point from a four parameter logistic curve fit. Ki was calculated using the Cheng Prusoff equation, Ki=IC50/(1+([S]/Km)).

[2] = target: purified human Factor XIa (Homo sapiens (Human), UniProt P03951); test: Factor XIa Assay; type: biochemical; conditions: substrate Z-Gly-Pro-Arg-AFC 100 μM, 40 pM enzyme, pH 7.4; read-out: FXIa IC50
Sequence of purified human Factor XIa (P03951 388-625): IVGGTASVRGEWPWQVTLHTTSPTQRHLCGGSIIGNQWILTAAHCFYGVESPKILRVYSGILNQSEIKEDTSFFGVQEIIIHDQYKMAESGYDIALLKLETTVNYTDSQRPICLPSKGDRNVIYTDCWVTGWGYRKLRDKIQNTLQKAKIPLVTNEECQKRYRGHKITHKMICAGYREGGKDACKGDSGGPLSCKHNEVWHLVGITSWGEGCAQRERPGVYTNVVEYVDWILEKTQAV
Sequence of purified human Factor XIa (P03951 19-387 partner): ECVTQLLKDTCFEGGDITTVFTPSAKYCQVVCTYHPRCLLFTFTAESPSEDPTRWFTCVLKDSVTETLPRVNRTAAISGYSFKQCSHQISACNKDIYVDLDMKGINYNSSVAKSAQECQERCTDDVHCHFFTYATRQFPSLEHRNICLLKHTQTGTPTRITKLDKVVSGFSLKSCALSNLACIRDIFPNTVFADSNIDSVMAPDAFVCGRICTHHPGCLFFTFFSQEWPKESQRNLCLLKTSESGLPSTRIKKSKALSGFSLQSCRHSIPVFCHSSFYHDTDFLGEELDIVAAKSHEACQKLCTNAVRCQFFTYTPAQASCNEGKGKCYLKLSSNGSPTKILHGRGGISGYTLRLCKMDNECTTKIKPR
Experimental: as §1, with “Coagulation Factor XIa” for “Kallikrein”, “The results of this assay are expressed as the inhibitory constant, Ki.” left out
Factor XIa determinations were made in 50 mM HEPES buffer at pH 7.4 containing 150 mM NaCl, 5 mM CaCl2, and 0.1% PEG 8000 (polyethylene glycol; JT Baker or Fisher Scientific). Determinations were made using purified human Factor XIa at a final concentration of 40 pM (Sekisui Diagnostics) and the synthetic substrate, Z-Gly-Pro-Arg-AFC, TFA salt (Sigma #C0980) at a concentration of 100 μM.
Times required to achieve equilibration between enzyme and inhibitor were determined in control experiments. Initial velocities of product formation in the absence (Vo) or presence of inhibitor (Vi) were measured. Assuming competitive inhibition, and that unity is negligible compared Km/[S], [I]/e, and [I]/e (where [S], [I], and e respectively represent the total concentrations, of substrate, inhibitor and enzyme), the equilibrium constant (Ki) for dissociation of the inhibitor from the enzyme can be obtained from the dependence of Vo/Vi on [I] shown in the following equation.

Sequence of purified Human plasma kallikrein (P03952 391-638): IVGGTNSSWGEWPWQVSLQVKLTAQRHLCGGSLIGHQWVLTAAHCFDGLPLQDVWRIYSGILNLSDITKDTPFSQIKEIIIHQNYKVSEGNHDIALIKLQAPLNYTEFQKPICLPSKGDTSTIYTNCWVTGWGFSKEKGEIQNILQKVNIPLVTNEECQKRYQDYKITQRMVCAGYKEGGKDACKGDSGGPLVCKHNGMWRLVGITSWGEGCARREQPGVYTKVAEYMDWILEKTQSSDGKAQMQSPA
Sequence of purified Human plasma kallikrein (P03952 20-390 partner): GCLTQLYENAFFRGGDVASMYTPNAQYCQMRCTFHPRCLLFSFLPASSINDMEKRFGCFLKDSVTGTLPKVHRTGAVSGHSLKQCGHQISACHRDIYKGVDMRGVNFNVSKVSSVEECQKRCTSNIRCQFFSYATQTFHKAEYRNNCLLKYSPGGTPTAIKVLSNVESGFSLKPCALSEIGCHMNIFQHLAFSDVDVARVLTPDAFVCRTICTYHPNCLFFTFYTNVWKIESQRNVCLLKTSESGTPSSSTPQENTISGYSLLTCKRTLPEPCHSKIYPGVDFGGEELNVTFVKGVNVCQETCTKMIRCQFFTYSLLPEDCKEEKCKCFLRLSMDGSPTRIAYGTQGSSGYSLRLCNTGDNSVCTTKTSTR

Row | SMILES | pIC50 [1] | pIC50 [2]
1 | COC(=O)Nc1ccc(-c2cccc(C(Cc3ccccc3)c3ccc(-c4cc(Cl)ccc4-n4cnnn4)c[n+]3[O-])c2)cc1 (racemic) [Example 1, (±)-5-(5-Chloro-2-(1H-tetrazol-1-yl)phenyl)-2-(1-(4′-((methoxycarbonyl)amino)-[1,1′-biphenyl]-3-yl)-2-phenylethyl)pyridine 1-oxide] | 7.61 | 9.20
2 | O=C(O)c1cccc(-c2cccc(C(Cc3ccccc3)c3ccc(-c4cc(Cl)ccc4-n4cnnn4)c[n+]3[O-])c2)c1 (racemic) [Example 7, 2-(1-(3′-carboxy-[1,1′-biphenyl]-3-yl)-2-phenylethyl)-5-(5-chloro-2-(1H-tetrazol-1-yl)phenyl)pyridine 1-oxide] | 7.11 | 9.34
3 | O=C(O)c1ccc(-c2cccc(C(Cc3ccccc3)c3ccc(-c4cc(Cl)ccc4-n4cnnn4)c[n+]3[O-])c2)cc1 (racemic) [Example 10] | 6.15 | 7.72
4 | O=C(O)c1cccc(-c2cc(F)cc(C(Cc3ccccc3)c3ccc(-c4cc(Cl)ccc4-n4cnnn4)c[n+]3[O-])c2)c1 (racemic) [Example 13] | 7.92 | 9.46
5 | O=C(O)c1cccc(-c2cccc(C(CC3CC3)c3ccc(-c4cc(Cl)ccc4-n4cnnn4)c[n+]3[O-])c2)c1 (racemic) [Example 17] | 6.27 | 7.92
6 | [O-][n+]1cc(-c2cc(Cl)ccc2-n2cnnn2)ccc1C(Cc1ccccc1)c1cccc(C2CCNCC2)c1 (racemic) [Example 20, 5-[5-chloro-2-(1H-tetrazol-1-yl)phenyl]-2-[2-phenyl-1-(3-piperidin-4-ylphenyl)ethyl] pyridine 1-oxide] | – | 6.67
7 | CNC(=O)N1CCC(c2cccc(C(Cc3ccccc3)c3ccc(-c4cc(Cl)ccc4-n4cnnn4)c[n+]3[O-])c2)CC1 (racemic) [Example 21, 4-[3-(1-{5-[5-chloro-2-(1H-tetrazol-1-yl)phenyl]-1-oxidopyridin-2-yl}-2-phenylethyl)phenyl]-N-methyl piperidine-1-carboxamide] | 6.30 | 7.99
8 | CS(=O)(=O)N1CCC(c2cccc(C(Cc3ccccc3)c3ccc(-c4cc(Cl)ccc4-n4cnnn4)c[n+]3[O-])c2)CC1 (racemic) [Example 22, 5-[5-chloro-2-(1H-tetrazol-1-yl)phenyl]-2-(1-{3-[1-(methylsulfonyl)piperidin-4-yl]phenyl}-2-phenylethyl) pyridine 1-oxide] | 5.98 | 7.23
9 | COC(=O)N1CCC(c2cccc(C(Cc3ccccc3)c3ccc(-c4cc(Cl)ccc4-n4cnnn4)c[n+]3[O-])c2)CC1 (racemic) [Example 23, methyl 4-[3-(1-{5-[5-chloro-2-(1H-tetrazol-1-yl)phenyl]-1-oxidopyridin-2-yl}-2-phenylethyl)phenyl] piperidine-1-carboxylate] | – | 7.07
10 | O=C(O)c1ccc(-c2cccc(C(Cc3ccccc3)c3ccc(-c4cc(Cl)ccc4-n4cnnn4)c[n+]3[O-])c2)cc1 (single isomer, unassigned) [Example 12] | – | 5.46
11 | COC(=O)Nc1ccc(-c2cccc([C@@H](Cc3ccccc3)c3ccc(-c4cc(Cl)ccc4-n4cnnn4)c[n+]3[O-])c2)cc1 [Example 2, (R)-5-(5-Chloro-2-(1H-tetrazol-1-yl)phenyl)-2-(1-(4′-((methoxycarbonyl)amino)-[1,1′-biphenyl]-3-yl)-2-phenylethyl)pyridine 1-oxide] | – | 6.37
12 | CS(=O)(=O)c1ccc(-c2cccc([C@@H](Cc3ccccc3)c3ccc(-c4cc(Cl)ccc4-n4cnnn4)c[n+]3[O-])c2)cc1 [Example 5] | – | 5.00
13 | O=C(O)c1cccc(-c2cc(F)cc([C@@H](Cc3ccccc3)c3ccc(-c4cc(Cl)ccc4-n4cnnn4)c[n+]3[O-])c2)c1 [Example 15] | – | 6.63
14 | O=C(O)c1cccc(-c2cccc(C(CC3CC3)c3ccc(-c4cc(Cl)ccc4-n4cnnn4)c[n+]3[O-])c2)c1 (stereo not drawn) [Example 19] | – | 6.00
15 | CC(C)(C)OC(=O)N1CCC(c2cccc([C@@H](Cc3ccccc3)c3ccc(-c4cc(Cl)ccc4-n4cnnn4)c[n+]3[O-])c2)CC1 [Example 25, tert-butyl 4-{3-[(1R)-1-{5-[5-chloro-2-(1H-tetrazol-1-yl)phenyl]-1-oxidopyridin-2-yl}-2-phenylethyl]phenyl} piperidine-1-carboxylate] | – | 6.00
16 | CC(C)(C)OC(=O)N1CCC(c2cccc([C@H](Cc3ccccc3)c3ccc(-c4cc(Cl)ccc4-n4cnnn4)c[n+]3[O-])c2)CC1 [Example 26, tert-butyl 4-{3-[(1S)-1-{5-[5-chloro-2-(1H-tetrazol-1-yl)phenyl]-1-oxidopyridin-2-yl}-2-phenylethyl]phenyl} piperidine-1-carboxylate] | – | 6.61
17 | CCNC(=O)N1CCC(c2cccc([C@@H](Cc3ccccc3)c3ccc(-c4cc(Cl)ccc4-n4cnnn4)c[n+]3[O-])c2)CC1 [Example 27, 4-{3-[(1R)-1-{5-[5-chloro-2-(1H-tetrazol-1-yl)phenyl]-1-oxidopyridin-2-yl}-2-phenylethyl]phenyl}-N-ethyl-piperidine-1-carboxamide] | – | 6.00
18 | O=C(C(F)F)N1CCC(c2cccc([C@H](Cc3ccccc3)c3ccc(-c4cc(Cl)ccc4-n4cnnn4)c[n+]3[O-])c2)CC1 [Example 37, 5-[5-chloro-2-(1H-tetrazol-1-yl)phenyl]-2-[(1S)-1-{3-[1-(difluoroacetyl)piperidin-4-yl]phenyl}-2-phenylethyl] pyridine 1-oxide] | 6.27 | –
19 | CCCOC(=O)N1CCC(c2cccc([C@H](Cc3ccccc3)c3ccc(-c4cc(Cl)ccc4-n4cnnn4)c[n+]3[O-])c2)CC1 [Example 41, propyl 4-{3-[(1S)-1-{5-[5-chloro-2-(1H-tetrazol-1-yl)phenyl]-1-oxidopyridin-2-yl}-2-phenylethyl]phenyl} piperidine-1-carboxylate] | – | 6.88
20 | CC(C)COC(=O)N1CCC(c2cccc([C@H](Cc3ccccc3)c3ccc(-c4cc(Cl)ccc4-n4cnnn4)c[n+]3[O-])c2)CC1 [Example 42, 2-methylpropyl 4-{3-[(1S)-1-{5-[5-chloro-2-(1H-tetrazol-1-yl)phenyl]-1-oxidopyridin-2-yl}-2-phenylethyl]phenyl} piperidine-1-carboxylate] | – | 6.25
21 | O=C(OCCF)N1CCC(c2cccc([C@H](Cc3ccccc3)c3ccc(-c4cc(Cl)ccc4-n4cnnn4)c[n+]3[O-])c2)CC1 [Example 43, 2-fluoroethyl 4-{3-[(1S)-1-{5-[5-chloro-2-(1H-tetrazol-1-yl)phenyl]-1-oxidopyridin-2-yl}-2-phenylethyl]phenyl} piperidine-1-carboxylate] | – | 7.20
22 | O=C(OCC1CC1)N1CCC(c2cccc([C@H](Cc3ccccc3)c3ccc(-c4cc(Cl)ccc4-n4cnnn4)c[n+]3[O-])c2)CC1 [Example 44, cyclopropyl-methyl 4-{3-[1S)-1-{5-[5-chloro-2-(1H-tetrazol-1-yl)phenyl]-1-oxidopyridin-2-yl}-2-phenylethyl] phenyl} piperidine-1-carboxylate] | – | 6.73
23 | O=C(OCC(F)(F)F)N1CCC(c2cccc([C@H](Cc3ccccc3)c3ccc(-c4cc(Cl)ccc4-n4cnnn4)c[n+]3[O-])c2)CC1 [Example 46, 2,2,2-trifluoroethyl 4-{3-[(1S)-1-{5-[5-chloro-2-(1H-tetrazol-1-yl)phenyl]-1-oxidopyridin-2-yl}-2-phenylethyl]phenyl} piperidine-1-carboxylate] | – | 6.32
